The text below walks through data of publication PMC11272598, “RG7774 (Vicasinabin), an orally bioavailable cannabinoid receptor 2 (CB2R) agonist, decreases retinal vascular permeability, leukocyte adhesion, and ocular inflammation in animal models” (Frontiers in Pharmacology, 2024).

Read-outs that look alike come from different tables or passages of the source.

Data set [1] concerns LPS-induced leukocyte adhesion. Briefly: LPS-induced leukocyte adhesion in rats with EIU (IVM). To be noted: IV 1.0 mg/kg, 6 h after LPS. Format: in vivo, Lewis rats. Here is the method:
Male BALB/c mice aged 8–10 weeks and weighing 21–26 g (Charles River, QC, Canada) were housed in individually ventilated Allentown cages (Allentown Inc., NJ, United States). Maximum density was n = 5 per cage, with the same litter and sex. Male Lewis rats aged 7–10 weeks and weighing 200–300 g (Charles River, QC, Canada) were housed in static cages (Allentown Inc., NJ, United States), n = 2 per cage with the same litter and sex. Both mice and rats were maintained in a controlled environment (21°C–22°C, humidity range 40%–60%, and a 12 h light/dark cycle), with unrestricted access to food and water. All experiments were conducted in accordance with the standards and procedures of the Canadian Council on Animal Care ([CCAC, 2024]) and were approved by the Dalhousie University Committee on Laboratory Animals. The protocol #13-027 was approved for experimental work in mice. […] All experiments were performed and are reported in accordance with the ARRIVE guidelines ([Kilkenny et al., 2010]; [McGrath et al., 2010]). […]
IVM was used for in vivo investigations of LPS-induced leukocyte recruitment as previously described ([Toguri et al., 2014]). […] The depth of anesthesia throughout the procedure was assessed by the absence of a toe-pinch reflex. […]

Data set [2] in a line: Hepatocyte clearance. To be noted: read-out: Hepatocyte CL. The class given is in vitro ADME. Here is the method:
For animals, hepatocyte suspension cultures were either freshly prepared by liver perfusion or from cryopreserved hepatocyte batches (BioIVT, NY, USA). For humans, commercially-available, pooled (5–20 donors), cryopreserved human hepatocytes from nontransplantable liver tissues were used (BioIVT). Suspension cultures were incubated in Nunc U96 PP-0.5 mL plates (Nunc Natural, 267245) in a Thermo Forma incubator (Fischer Scientific, Wohlen, Switzerland) equipped with Variomag® Teleshake shakers (Sterico, Wangen, Switzerland) to maintain cell dispersion. The cell culture medium was William’s media supplemented with glutamine, antibiotics, insulin, dexamethasone, and 10% FCS. RG7774 (1 μM) were incubated in 96-well plates containing suspension cultures (1 × 10^6 hepatocytes/mL [~1 mg/mL protein concentration]), with each well containing a total volume of 100 μL. Plates were shaken at 900 rpm for up to 2 h in 5% CO2 at 37 °C. Reactions were quenched after 3, 6, 10, 20, 40, 60, and 120 min with 200 μL methanol containing an internal standard. Samples were cooled, centrifuged, and analyzed by LC-MS/MS. Log peak area ratios (test compound peak area/internal standard peak area) or concentrations were plotted against incubation time using a linear fit to the data with emphasis on the initial rate of compound disappearance.

The nature of data set [3]: logD 7.4. Format: physicochemical. The note with it: octanol/water, pH 7.4. The source says:
TABLE 2 Physicochemical and ADMET profile for RG7774.

A short description of data set [4]: Ocular tissue PK in rats. The class given is in vivo. To be noted: 26 days of oral administration, 3 and 30 mg/kg/day. The method, then:
The plasma PK profile of RG7774 was assessed in adult male C57BL/6J mice and female Wistar rats (Charles River, Cologne, Germany) housed in a controlled environment (temperature, humidity, and 12 h light/dark cycle) with unrestricted access to food and water. The ocular PK profile of RG7774 was assessed in adult female […] rats (Charles River, Mattawan, MI, United States) housed in a controlled environment (21°C–22°C temperature, 40%–60%, humidity, and 12 h light/dark cycle) with unrestricted access to food and water and conducted according to local regulations by EyeCRO (Ann Arbor, MI, United States).
[…] […] Samples were collected from the tail vein or via heart puncture (terminal) and prepared within 30 min of collection by centrifugation at 3,000 g for 5 min at 4°C and were immediately frozen. RG7774 concentrations in plasma and homogenized tissues were determined using LC-MS/MS. PK parameters were estimated by non-compartmental analysis of plasma data using Phoenix WinNonlin software (Certara, Princeton, NJ, United States).

By logD is commonly meant lipophilicity at a set pH, counting ionised and neutral species. The low end stands for a more hydrophilic compound, the high end for a more lipophilic compound. Take `Cn1nnnc1Cn1nnc2c(N3CC[C@H](O)C3)nc(C(C)(C)C)nc21` [RG7774, (S)-1-(5-tert-butyl-3-[(1-methyl-1H-tetrazol-5-yl)methyl]-3H-[1,2,3]triazolo[4,5-d]pyrimidin-7-yl)pyrrolidin-3-ol]: the “decrease in leukocyte adhesion compared to vehicle control” value in data set [1] is reported as 60%. Also, the hepatocyte CLint at 1 µM in data set [2] (human, pooled cryopreserved human hepatocytes in suspension) is 1.7 µL/min/1e6 cells; in data set [2] (mouse) it was 49.3 µL/min/1e6 cells; in data set [2] (rat), 37.9 µL/min/1e6 cells. The same compound yielded a logD in data set [3] of 2.2. The “concentrations in retina and choroid/retinal pigment epithelium tissues relative to plasma” value in data set [4] was “in the same range as the total plasma concentration”. Further, in data set [4], the “exposure in the vitreous humor relative to plasma” value is “closer to that found in free plasma”.
